Measurements taken from the NIST ThermoML archive (doi:10.1016/j.jct.2007.07.010).
Several values for one entry are separate records, joined by “and”; a condition that tells them apart may be missing. Equal entries are not always repeated.

Assays:
[1] = Molar enthalpy of transition or fusion; conditions: Crystal; DSC
[2] = Crystal; for vapor or sublimation pressure: Calculated from knudsen effusion weight loss; for Normal melting temperature: DTA

O=C(O)Cc1ccccc1Cl [(2-chlorophenyl)ethanoic acid]
Conditions	Molar enthalpy of transition or fusion [kcal/mol]	Normal melting temperature [°C]
[1]	5.82	–
[2]	–	94.24

[2]
Conditions	vapor or sublimation pressure
322.2 K	0.000151 kPa and 0.000153 kPa and 0.000152 kPa
324.14 K	0.000196 kPa and 0.000198 kPa and 0.000197 kPa
326.11 K	0.00025 kPa and 0.000251 kPa and 0.000255 kPa
328.2 K	0.000315 kPa and 0.00032 kPa and 0.000316 kPa
330.13 K	0.000401 kPa and 0.000406 kPa and 0.000402 kPa
332.19 K	0.000518 kPa and 0.000512 kPa
334.12 K	0.00065 kPa and 0.000639 kPa
336.11 K	0.000837 kPa and 0.000813 kPa and 0.000829 kPa
338.11 K	0.00105 kPa and 0.00103 kPa

O=C(O)Cc1ccc(Cl)cc1 [(4-chlorophenyl)ethanoic acid]
Conditions	Molar enthalpy of transition or fusion [kcal/mol]	Normal melting temperature [°C]
[1]	5.63	–
[2]	–	104.8

[2]
Conditions	vapor or sublimation pressure
325.2 K	0.000154 kPa and 0.000156 kPa and 0.000153 kPa
327.15 K	0.000194 kPa and 0.000199 kPa and 0.000197 kPa
329.12 K	0.000252 kPa and 0.00025 kPa
331.19 K	0.000318 kPa and 0.000312 kPa
333.14 K	0.000401 kPa and 0.000398 kPa and 0.000394 kPa
335.12 K	0.000506 kPa and 0.000502 kPa
337.2 K	0.000631 kPa and 0.000634 kPa
339.13 K	0.000788 kPa and 0.000793 kPa and 0.000775 kPa
341.11 K	0.001 kPa and 0.00099 kPa and 0.00098 kPa

O=C(O)Cc1cccc(Cl)c1 [(3-chlorophenyl)ethanoic acid]
Conditions	Molar enthalpy of transition or fusion [kcal/mol]	Normal melting temperature [°C]
[1]	5.4	–
[2]	–	76.63

[2]
Conditions	vapor or sublimation pressure
319.2 K	0.000131 kPa and 0.000132 kPa and 0.000133 kPa
321.13 K	0.000172 kPa and 0.000174 kPa
323.11 K	0.000226 kPa and 0.000216 kPa and 0.000224 kPa
325.2 K	0.000281 kPa and 0.000279 kPa
327.12 K	0.000356 kPa and 0.00036 kPa
329.11 K	0.000468 kPa and 0.000453 kPa and 0.00046 kPa
331.19 K	0.000576 kPa and 0.000578 kPa and 0.000567 kPa
333.11 K	0.000733 kPa and 0.000713 kPa
335.11 K	0.00092 kPa
